Test results taken from patent publication US20160060260A1, “BROMODOMAIN INHIBITORS FOR TREATING DISEASE” (Board of Regents, The University of Texas System, priority 2014, published 2016).
pIC50: −log10 of the molar value.

Target: T1, Recombinant human His-tagged Trim24-PHD-bromodomain (Homo sapiens, UniProt O15164)
T1 construct: Recombinant human His-tagged Trim24-PHD-bromodomain (produced in-house); made in house
T1 sequence (O15164 824-1006 limits assumed): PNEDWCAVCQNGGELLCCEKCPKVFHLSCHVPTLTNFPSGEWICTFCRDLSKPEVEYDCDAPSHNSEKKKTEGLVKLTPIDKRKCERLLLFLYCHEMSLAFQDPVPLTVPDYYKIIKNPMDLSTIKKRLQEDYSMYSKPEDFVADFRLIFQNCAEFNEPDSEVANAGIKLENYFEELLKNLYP
Test: Trim24 AlphaScreen Assay
Assay type: binding
Settings: 5 nM Trim24 protein, 15 nM biotinylated H3K23ac (1-33aa) peptide
Method in brief: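 AlphaScreen read-out after 2 h with streptavidin donor and Ni-chelate acceptor beads at 10 ug/mL each, following 1 h room-temperature incubation of compound, His-tagged PHD-bromodomain protein and biotin-H3K23ac (1-33aa) peptide in Hepes pH 7.5 buffer with NaCl and Triton X-100. Signals normalised between no-compound and no-protein wells; IC50 from four-parameter logistic curves.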

Row | Compound | pIC50
1 | C=CCOc1cccc(S(=O)(=O)Nc2cc3c(cc2Oc2cccc(OCC(F)(F)F)c2)n(C)c(=O)n3C)c1 [Example 193, 3-(allyloxy)-N-(1,3-dimethyl-2-oxo-6-(3-(2,2,2-trifluoroethoxy)phenoxy)-2,3-dihydro-1H-benzo[d]imidazol-5-yl)benzenesulfonamide] | 6.00 to 7.00
2 | CCCOc1cc(OCCCCN)cc(Oc2cc3c(cc2NS(=O)(=O)c2cccc(C(=O)OC)c2)n(C)c(=O)n3C)c1 [Example 252, Methyl 3-({6-[3-(4-aminobutoxy)-5-propoxyphenoxy]-1,3-dimethyl-2-oxo-2,3-dihydro-1H-1,3-benzodiazol-5-yl}sulfamoyl)benzoate] | 7.00 to 8.00
3 | CC(C)COc1ccc(S(=O)(=O)Nc2cc3c(cc2Oc2cccc(OCc4ccccc4)c2)n(C)c(=O)n3C)cc1 [Example 16, N-(6-(3-(benzyloxy)phenoxy)-1,3-dimethyl-2-oxo-2,3-dihydro-1H-benzo[d]imidazol-5-yl)-4-isobutoxybenzenesulfonamide] | < 6.00
4 | CCCOc1cc(OCCC)cc(Oc2cc3c(cc2NS(=O)(=O)c2cn(C)c(C)n2)n(C)c(=O)n3C)c1 [Example 90, N-(6-(3,5-dipropoxyphenoxy)-1,3-diemthyl-2-oxo-2,3-dihydro-1H-benzo[d]imidazol-5-yl)-1,2-dimethyl-1H-imidazole-4-sulfonamide] | 7.00 to 8.00
5 | Cn1cnc(S(=O)(=O)Nc2cc3c(cc2Oc2cccc(OCCCCN)c2)n(C)c(=O)n3C)c1 [Example 5, N-(6-(3-(4-aminobutoxy)phenoxy)-1,3-dimethyl-2-oxo-2,3-dihydro-1H-benzo[d]imidazol-5-yl)-1-methyl-1H-imidazole-4-sulfonamide] | 6.00 to 7.00
6 | Cn1cnc(S(=O)(=O)Nc2cc3c(cc2Oc2cccc(OCC(C)(C)O)c2)n(C)c(=O)n3C)c1 [Example 238, N-{6-[3-(2-hydroxy-2-methylpropoxy)phenoxy]-1,3-dimethyl-2-oxo-2,3-dihydro-1H-1,3-benzodiazol-5-yl}-1-methyl-1H-imidazole-4-sulfonamide] | 6.00 to 7.00
7 | CCCOc1cc(OCCCCCCN)cc(Oc2cc3c(cc2NS(=O)(=O)c2ccccn2)n(C)c(=O)n3C)c1 [Example 187, N-(6-(3-((6-aminohexyl)oxy)-5-propoxyphenoxy)-1,3-dimethyl-2-oxo-2,3-dihydro-1H-benzo[d]imidazol-5-yl)pyridine-2-sulfonamide] | 7.00 to 8.00
8 | CCCOc1cc(OCCCCN)cc(Oc2cc3c(cc2NS(=O)(=O)c2ccc(OC)c(OC)c2)n(C)c(=O)n3C)c1 [Example 196, N-(6-(3-(4-aminobutoxy)-5-propoxyphenoxy)-1,3-dimethyl-2-oxo-2,3-dihydro-1H-benzo[d]imidazol-5-yl)-3,4-dimethoxybenzenesulfonamide] | 8.00 to 9.00
9 | Cn1cnc(S(=O)(=O)Nc2cc3c(cc2Oc2cccc(OCC4CC4)c2)n(C)c(=O)n3C)c1 [Example 100, N-(6-(3-(cyclopropylmethoxy)phenoxy)-1,3-dimethyl-2-oxo-2,3-dihydro-1H-benzo[d]imidazol-5-yl)-1-methyl-1H-imidazole-4-sulfonamide] | 7.00 to 8.00
10 | CCCCOc1cccc(Oc2cc3c(cc2NS(=O)(=O)c2cn(C)c(C)n2)n(C)c(=O)n3C)c1 [Example 57, N-(6-(3-butoxyphenoxy)-1,3-dimethyl-2-oxo-2,3-dihydro-1H-benzo[d]imidazol-5-yl)-1,2-dimethyl-1H-imidazole-4-sulfonamide] | 6.00 to 7.00
11 | CCCOc1cccc(Oc2cc3c(cc2NS(=O)(=O)c2ccc(OC)c(NC(C)=O)c2)n(C)c(=O)n3C)c1 [Example 174, N-(5-(N-(1,3-dimethyl-2-oxo-6-(3-propoxyphenoxy)-2,3-dihydro-1H-benzo[d]imidazol-5-yl)sulfamoyl)-methoxyphenyl)acetamide] | 7.00 to 8.00
12 | Cn1cnc(S(=O)(=O)Nc2cc3c(cc2Oc2cccc(OCC(C)(O)CNCCN)c2)n(C)c(=O)n3C)c1 (centres unmarked) [Example 237, N-[6-(3-{3-[(2-aminoethyl)amino]-2-hydroxy-2-methylpropoxy}phenoxy)-1,3-dimethyl-2-oxo-2,3-dihydro-1H-1,3-benzodiazol-5-yl]-1-methyl-1H-imidazole-4-sulfonamide] | 6.00 to 7.00
13 | Cn1c(=O)n(C)c2cc(Oc3cccc(OCc4ccccc4)c3)c(NS(=O)(=O)c3ccccc3Br)cc21 [Example 37, N-(6-(3-(benzyloxy)phenoxy)-1,3-dimethyl-2-oxo-2,3-dihydro-1H-benzo[d]imidazol-5-yl)-2-bromobenzenesulfonamide] | < 6.00

Results, then the compound that gave them:

Row | pIC50 | Compound
14 | < 6.00 | Cc1nc(S(=O)(=O)Nc2cc3c(cc2Oc2cccc(OCC(=O)N(C)C)c2)n(C)c(=O)n3C)cn1C [Example 56, 2-(3-((6-((1,2-dimethyl-1H-imidazole)-4-sulfonamido)-1,3-dimethyl-2-oxo-2,3-dihydro-1H-benzo[d]imidazol-5-yl)oxy)phenoxy)-N,N-dimethylacetamide]
15 | 7.00 to 8.00 | Cn1c(=O)n(C)c2cc(Oc3cccc(OCC(F)(F)F)c3)c(NS(=O)(=O)c3c[nH]cn3)cc21 [Example 88, N-(1,3-dimethyl-2-oxo-6-(3-(2,2,2-trifluoroethoxy)phenoxy)-2,3-dihydro-1H-benzo[d]imidazol-5-yl)-1H-imidazole-4-sulfonamide]
16 | 6.00 to 7.00 | Cc1ncc(S(=O)(=O)Nc2cc3c(cc2Oc2cccc(OCc4ccccc4)c2)n(C)c(=O)n3C)s1 [Example 47, N-(6-(3-(benzyloxy)phenoxy)-1,3-dimethyl-2-oxo-2,3-dihydro-1H-benzo[d]imidazol-5-yl)-2-methylthiazole-5-sulfonamide]
17 | 7.00 to 8.00 | CCCOc1cc(OCCCOC)cc(Oc2cc3c(cc2NS(=O)(=O)c2cccnc2)n(C)c(=O)n3C)c1 [Example 137, N-(6-(3-(3-methoxypropoxy)-5-propoxyphenoxy)-1,3-dimethyl-2-oxo-2,3-dihydro-1H-benzo[d]imidazol-5-yl)pyridine-3-sulfonamide]
18 | 6.00 to 7.00 | CCCOc1cc(OCCCOC)cc(Oc2cc3c(cc2NS(=O)(=O)c2cccc(C)c2)n(C)c(=O)n3C)c1 [Example 155, N-(6-(3-(3-methoxypropoxy)-5-propoxyphenoxy)-1,3-dimethyl-2-oxo-2,3-dihydro-1H-benzo[d]imidazol-5-yl)-3-methylbenzenesulfonamide]
19 | 6.00 to 7.00 | Cn1cnc(S(=O)(=O)Nc2cc3c(cc2Oc2cccc(OCc4ccncc4)c2)n(C)c(=O)n3C)c1 [Example 30, N-(1,3-dimethyl-2-oxo-6-(3-(pyridin-4-ylmethoxy)phenoxy)-2,3-dihydro-1H-benzo[d]imidazol-5-yl)-1-methyl-1H-imidazole-4-sulfonamide]
20 | 6.00 to 7.00 | CCCOc1cc(OCCCCCCNC(=O)OC(C)(C)C)cc(Oc2cc3c(cc2NS(=O)(=O)c2cn(C)cn2)n(C)c(=O)n3C)c1 [Example 119, tert-butyl (6-(3-((1,3-dimethyl-6-((1-methyl-1H-imidazole)-4-sulfonamido)-2-oxo-2,3-dihydro-1H-benzo[d]imidazol-5-yl)oxy)-5-propoxyphenoxy)hexyl)carbamate]
21 | 6.00 to 7.00 | CCCOc1cc(Oc2cc3c(cc2NS(=O)(=O)c2cn(C)cn2)n(C)c(=O)n3C)ccc1Cl [Example 112, N-(6-(4-chloro-3-propoxyphenoxy)-1,3-dimethyl-2-oxo-2,3-dihydro-1H-benzo[d]imidazol-5-yl)-1-methyl-1H-imidazole-4-sulfonamide]
22 | 6.00 to 7.00 | Cn1cnc(S(=O)(=O)Nc2cc3c(cc2Oc2cccc(OCCCC#N)c2)n(C)c(=O)n3C)c1 [Example 97, N-(6-(3-(3-cyanopropoxy)phenoxy)-1,3-dimethyl-2-oxo-2,3-dihydro-1H-benzo[d]imidazol-5-yl)-1-methyl-1H-imidazole-4-sulfonamide]
23 | 6.00 to 7.00 | COCCCOc1cccc(Oc2cc3c(cc2NS(=O)(=O)c2cn(C)cn2)n(C)c(=O)n3C)c1 [Example 68, N-(6-(3-(3-methoxypropoxy)phenoxy)-1,3-dimethyl-2-oxo-2,3-dihydro-1H-benzo[d]imidazol-5-yl)-1-methyl-1H-imidazole-4-sulfonamide]
24 | 6.00 to 7.00 | CCCOc1cccc(Oc2cc3c(cc2NS(=O)(=O)c2nnc[nH]2)n(C)c(=O)n3C)c1 [Example 87, N-(1,3-diemthyl-2-oxo-6-(3-propoxyphenoxy)-2,3-dihydro-1H-benzo[d]imidazol-5-yl)-4H-1,2,4-triazole-3-sulfonamide]
25 | 7.00 to 8.00 | COc1ccc(S(=O)(=O)Nc2cc3c(cc2Oc2cc(OCCCCCCN)cc(OCC(F)(F)F)c2)n(C)c(=O)n3C)cc1OC [Example 194, N-(6-(3-((6-aminohexyl)oxy)-5-(2,2,2-trifluoroethoxy)phenoxy)-1,3-dimethyl-2-oxo-2,3-dihydro-1H-benzo[d]imidazol-5-yl)-3,4-dimethoxybenzenesulfonamide]
26 | 8.00 to 9.00 | CCCOc1cc(OCCCC[N+](C)(C)C)cc(Oc2cc3c(cc2NS(=O)(=O)c2ccc(OC)c(OC)c2)n(C)c(=O)n3C)c1 [Example 254, 4-(3-((6-(3,4-dimethoxyphenylsulfonamido)-1,3-dimethyl-2-oxo-2,3-dihydro-1H-benzo[d]imidazol-5-yl)oxy)-5-propoxyphenoxy)-N,N,N-trimethylbutan-1-aminium 2,2,2-trifluoroacetate]
